This assay relates to CEM cells HIV-1 protection, formazan growth assay. Nature of the assay: NCI AIDS Antiviral Assay. The note with it: for pIC50: measured here: growth of uninfected CEM cells. An outline of the steps:
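Category rules: moderately active means at least 50% protection on retest, and confirmed active means 100% protection reproducibly. The underlying data came from a formazan growth assay in HIV-1-infected CEM cells.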

Molecules are shown by their SMILES. pEC50, pIC50: −log10 of the molar value. “And” between values parts separate entries of the source, which are not always exact repeats. Identical values can stand only once. The source made the active and inactive calls.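 How the source made its calls: active means compounds giving half or more protection of infected cells from virus-caused growth loss, again on retest; inactive means the rest.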

In the case of `CC(=O)CC(=O)CCC(=O)Nc1cccc(C(F)(F)F)c1`, the outcome was inactive. By pEC50 is commonly meant −log10 of the EC50, conventionally taken in molar units. By pIC50 is commonly meant the negative decadic logarithm of the IC50, by convention in mol/L. A low value points to a large IC50. Regarding `COc1cc(C=C2C(=O)NC(=O)NC2=O)cc(OC)c1OC`, the pEC50 is below 3.37 and the pIC50 was 3.59. On the same counts, the results for `[N-]=[N+]=C(C(=O)CN1CCCC1=O)S(=O)(=O)c1ccccc1` are below 3.09 and 3.36. For the compound `C=C1C2Oc3ccccc3C1N(c1ccccc1)O2` (stereo not drawn), the result was inactive. For `COc1ccc(N2NC(c3ccccc3)(c3ccccc3)C(C)C2=O)cc1` (stereo not drawn), the pEC50 is below 3.70 and the pIC50 was 4.96. On the same counts, the results for `CC1(C)CC(=O)C2=C(C1)Nc1ccccc1NC2c1ccccc1` (stereo not drawn) are below 3.70 and below 3.70. On the same counts, the results for `O=[As](O)(O)c1cc(N=Nc2ccc(-c3ccc(N=Nc4cc([As](=O)(O)O)c(O)cc4O)cc3)cc2)c(O)cc1O` are 5.18 and 5.11. On the same counts, the results for `CC1(C)[C@H]2CC[C@]1(C)[C@H](OC(=O)NNC(=O)O[C@@H]1C[C@@H]3CC[C@@]1(C)C3(C)C)C2` are below 3.70 and 4.90. In the case of `CCCCc1ccc(-n2sc3ncc(C)cc3c2=O)cc1`, the pEC50 was 5.91 and the pIC50 is 4.66. On the same counts, the results for `CC1(C)OC(=S)N(c2ccccc2)C12C=Cc1cc3ccccc3nc1S2` (stereo not drawn) are below 5.43 and 5.48.

For the compound `CCC[CH2][Sn]1([CH2]CCC)[O]CC(Cc2ccccc2)[O]1` (stereo not drawn), the pEC50 was below 4.77 and the pIC50 is 6.48. Turning to `N#CC1(c2ccccc2)CCOCC1`, the pEC50 was below 3.30 and the pIC50 was below 3.30. In the case of `[O-]c1c2cc(-[n+]3c(-c4ccccc4)cc(-c4ccccc4)cc3-c3ccccc3)cc1CO[C@@H](c1ccccc1)[C@H](c1ccccc1)OCc1cccc(n1)CO[C@@H](c1ccccc1)[C@H](c1ccccc1)OC2`, the pEC50 was below 6.00 and the negative-log IC50 (pIC50) was 7.10.

In the case of `O=C(/C=C\c1ccc(-c2ccccc2)cc1)c1cccs1`, the pEC50 was below 3.70 and the pIC50 is 4.95. In the same order, the values of `O=c1[nH]c2nc(SCc3ccccc3)n(Cc3ccccc3)c2c(=O)n1OS(=O)(=O)c1ccccc1` are below 3.70 and 4.12. In the same order, the values of `CCOC(=O)CCC(NC(=O)c1ccc(Oc2nc3ccccc3nc2-c2ccccc2)cc1)C(=O)OCC` (stereo not drawn) are below 3.70 and below 3.70. On the same counts, the results for `COc1ccc(-c2cc3c(nn2)-c2ccccc2C3=O)cc1` are below 4.00 and below 4.00. In the case of `Cc1[nH]c2ccccc2c1C1Cc2ccccc2N1C(=O)/C(Cl)=C/c1ccccc1` (stereo not drawn), the pEC50 is below 5.18 and the pIC50 is below 5.18. Turning to `COc1cc2c(cc1O)-c1oncc1CCC2`, the pEC50 is below 4.11 and the pIC50 was below 4.11. As to `C1CCN(CCCSSCCCN2CCCCC2)CC1`, the pEC50 was below 3.70 and the pIC50 was 4.04. In the same order, the values of `COc1ccc(-c2cc(-c3ccccc3)c(C#N)c(=O)n2C2OC(COC(C)=O)C(OC(C)=O)C(OC(C)=O)C2OC(C)=O)cc1` (stereo not drawn) are below 4.80 and below 4.80. In the same order, the values of `CC1C(=O)c2cc3c(cc2CCN(C)Cc2c1ccc1c2OCO1)OCO3` (stereo not drawn) are below 4.15 and below 4.15.

With `CCN(CC)CCC(=O)c1ccc(Oc2ccccc2)cc1`, the pEC50 was below 3.70 and the pIC50 is 4.76. On the same counts, the results for `CCCCCCCCCCCC(C(=O)O)C(=O)O` are below 3.86 and below 3.86. In the same order, the values of `CC(C)(NC(=O)c1ccccc1SC(=O)CCCC[n+]1ccccc1)C(N)=O` are 6.00 and 4.30. Turning to `CCOC(=O)/C(Cc1cc[n+]([O-])cc1)=N/O`, the outcome was inactive. Take `NC(=O)c1nnc2c(F)cccc2c1N`: the pEC50 was below 3.70 and the pIC50 is 3.74. On the same counts, the results for `CC1(O)OC(=O)c2ccc3ccccc3c21` (stereo not drawn) are below 3.40 and below 3.40. Consider `O=C(/C=C/c1ccccc1)C[C@@H](O)C[C@@H]1CC=CC(=O)O1`, for which the pEC50 is below 3.70 and the negative-log IC50 (pIC50) is 5.50. On the same counts, the results for `OCCCSc1ccccc1SCCCO` are below 4.28 and below 4.28.

With `Cc1ccccc1-n1c(=O)c2ncn(C3CCCO3)c2n(-c2ccccc2C)c1=S` (stereo not drawn), the pEC50 is below 3.70 and the pIC50 was below 3.70.

As for `CN(C)CCN=C1Nc2ccccc2C(=O)N2CSCC12` (stereo not drawn), the pEC50 was below 3.70 and the pIC50 is below 3.70. On to `CN(C)CCCNC(=O)c1cc(NC(=O)c2cc(NC(=O)c3cc(NC(=O)c4ccc(C(=O)Nc5cc(C(=O)Nc6cc(C(=O)Nc7cc(C(=O)NCCCN(C)C)n(C)c7)n(C)c6)n(C)c5)nc4)cn3C)cn2C)cn1C`, for which the pEC50 was 5.27 and the pIC50 is below 4.00. With `COC(=O)c1cnc2nc(N3CCOCC3)[nH]n2c1=O`, the pEC50 is below 4.89 and the pIC50 was below 4.89. `CC(=O)OC1CCC2C3CCC4(C)C(=O)CCC4C3C3OC23C1` (stereo not drawn): the pEC50 is below 3.55 and the pIC50 is 3.68. On the same counts, the results for `COc1ccc(/C(C)=C2\CCCN(Cc3ccccc3)C2)cc1` are below 3.70 and 4.51. On the same counts, the results for `CC1(C)SC2c3ccccc3C(=O)N2C1C(=O)O` (stereo not drawn) are below 3.02 and below 3.02.

`COC1=CCC2=C(CC[C@H]3[C@H]2CCP3(C)=S)C1` (stereo partly drawn): the outcome was inactive.

As to `CN(C)CCNc1ccc(CO)c2sc3ccc(O)cc3c(=O)c12`, the pEC50 was below 5.70 and the pIC50 was 6.98. `COc1cc(C=NC2CCCCC2)cc(OC)c1OC`: the pEC50 was below 3.74 and the pIC50 is 4.02.

Consider `COc1ccccc1NC(=O)C1=C(C)NC(C)=C(C(=O)Nc2ccccc2OC)C1c1cccc2ccccc12`, for which the pEC50 is below 5.01 and the pIC50 is below 5.01. Take `CCC1(c2ccccc2)Sc2ccccc2-n2cccc2C1=O` (stereo not drawn): the pEC50 was 4.74 and the pIC50 is 3.81. For `C[N+]12CC[N+](C)(CC1)CC2`, the pEC50 was below 3.08 and the pIC50 is below 3.08. For `COc1ccc(C(c2ccccc2)N2C(=O)CCC2C(=O)O)cc1OC` (stereo not drawn), the pEC50 was below 3.70 and the pIC50 was below 3.70. On to `CC(C)OC/N=C(/N)NC#N`, for which the pEC50 was below 3.24 and the pIC50 was below 3.24. As for `CC(=O)/C=C/c1cc([N+](=O)[O-])ccc1O`, the pEC50 is below 3.70 and the pIC50 was 4.44.

As for `Cc1ccc(OS(=O)(=O)c2ccccc2[N+](=O)[O-])cc1`, the result was active. As to `COc1ccc(-c2oc3ccccc3c(=O)c2O)cc1OC`, the pEC50 was below 3.70 and the pIC50 was 3.86. As for `CN(C)CCCn1c(-c2cc(C(C)(C)C)c(O)c(C(C)(C)C)c2)csc1=Nc1ccccc1`, the pEC50 was below 3.70 and the pIC50 was 5.45. On the same counts, the results for `CC1(C)CC(=O)C(CCC(=O)/C=C/c2ccccc2)C(=O)C1` are below 4.06 and below 4.06. In the same order, the values of `N#CCC(=O)N1CCCCCCC1` are below 2.86 and below 2.86. On the same counts, the results for `COc1cnc2cc3c4c(cccc4c2c1)NC3=O` are below 4.00 and 5.40. `Cc1ccc(/C=C2\CCCC\C2=N\O)cc1`: the outcome was inactive. Still for that read-out and setting: to `CC(=O)C1=C(O)C2C3c4c[nH]c5cccc(c45)CC3C(C)(C)N2C1=O` (stereo not drawn) belongs “inactive”. As to `O=c1nc2c(c(-c3ccc(Br)cc3)[nH]1)COC/C2=C\c1ccc(Br)cc1`, the pEC50 is below 3.70 and the pIC50 was 4.12.

Regarding `CC(=O)OCC1OC(n2c3c(cc(C#N)c2=S)CCCC3)C(OC(C)=O)C(OC(C)=O)C1OC(C)=O` (stereo not drawn), the pEC50 was below 3.70; the pIC50 was 4.06 and < 3.70. For the compound `COC1=C(N)C(=O)c2nc(-c3nc(C(=O)O)c(C)c(-c4ccc(OC)c(OC)c4O)c3N)ccc2C1=O`, the pEC50 is below 5.31; the pIC50 was 8.52 and 8.72.

Take `c1ccc(CCN(CCc2ccccn2)CCc2ccccn2)nc1`: the pEC50 was below 3.70 and the pIC50 was below 4.00.

Regarding `N#CC1C(=O)Nc2cccnc21` (stereo not drawn), the pEC50 is below 2.80 and the pIC50 was 3.08. In the same order, the values of `O=C(c1ccco1)N(C(=S)N1CCN(c2ccccc2)CC1)C1CCCCC1` are below 4.74 and 4.90.

For `O=C1CCCC/C1=C/C=C/c1ccccc1`, the pEC50 was below 4.19 and the pIC50 is below 4.19. On to `CC(=O)Nc1ccc(S2=Nc3ccccc3S2)cc1` (stereo not drawn), for which the pEC50 is below 4.31 and the negative logarithm of the IC50 (pIC50) was 4.79.

As to `O=C(O)c1ccc(OCc2nc3cc(C(F)(F)F)ccc3nc2-c2ccccc2)cc1`, the pEC50 is below 3.70 and the pIC50 was 4.47. For the compound `CN1Cc2ccccc2C2(COc3ccc(C=O)cc3C2=O)C1` (stereo not drawn), the outcome was inactive. With `Cc1c(C(=O)O)[nH]c(=O)[nH]c1=O`, the pEC50 was below 3.70 and the pIC50 is below 3.70.

For `CC(=O)C1=CSC2[C@H](NC(=O)Cc3ccccc3)C(=O)N2C1C(=O)OC(c1ccccc1)c1ccccc1` (stereo partly drawn), the pEC50 was below 4.59 and the pIC50 is 4.80.

As for `CC1=CC(C)(C)NC(=S)N1c1ccc(N(C)C)cc1`, the outcome was inactive. Consider `COC1(OC)N=C(N)C2(C#N)C(C)CC(=O)N(N(C)C)C12C#N` (stereo not drawn), for which the pEC50 is below 3.70 and the pIC50 was below 3.70. As for `CC(C)C(=O)OCC1CCCN2CCCCC12` (stereo not drawn), the pEC50 is below 3.70 and the pIC50 is below 4.00.

Take `c1ccc(Nc2nnc(CSc3nc(-c4ccccc4)c(-c4ccccc4)[nH]3)s2)cc1`: the pEC50 was below 4.09 and the pIC50 is 4.14. As for `O=[N+]([O-])C1(CO)COC(CCc2ccccc2)OC1` (stereo not drawn), the outcome was inactive. In the case of `O=C1CC23CC(=O)CC2(C1)c1ccccc1C3=O` (stereo not drawn), the pEC50 was below 3.41 and the pIC50 was below 3.41. As for `CCOC(=O)C1C(C(=O)OCC)N2c3ccccc3-c3cccnc3[C@@H]2[C@H]1C(=O)OCC` (stereo partly drawn), the pEC50 is below 4.00 and the pIC50 is 4.02. On the same counts, the results for `CC(C)CCC[C@@H](C)C1CCC2[C@@H]3CC=C4C[C@@H](OP(=O)(O)OCCN(C)C)CC[C@]4(C)C3CC[C@@]21C` (stereo partly drawn) are below 4.06 and 4.93.

(Values after PubChem BioAssay AID179 (DTP/NCI, 2004).)
